Measurements reported in US12233081B2, “Hygromycin a compounds and methods of treating spirochete diseases” (priority 2018, dated 2025).
Where two headings read alike, the source gives them in different places.

Experiments:
gut microbiome [1] = conditions: mouse, in vivo
gut microbiome [2] = assay: gut microbiome 16S rRNA sequencing of stool of infected, treated mice; conditions: IP 50 mg/kg every 12 hours for 5 days

With `CC(=O)[C@H]1O[C@@H](Oc2ccc(/C=C(\C)C(=O)N[C@@H]3[C@H](O)[C@@H](O)[C@H]4OCO[C@H]4[C@@H]3O)cc2O)[C@@H](O)[C@@H]1O` [Hygromycin A] the “Camobacteriaceae change in percent relative abundance” value (gut microbiome [1]; C3H, ip, 50 mg/kg, 5 days) was −0.001%, the “Chitinophagaceae change in percent relative abundance” value (gut microbiome [1]; C3H, ip, 50 mg/kg, 5 days) was 0.000% and the “Christensenellaceae change in percent relative abundance” value (gut microbiome [1]; C3H, ip, 50 mg/kg, 5 days) was 0.000%. The “Clostridiaceae change in percent relative abundance” value (gut microbiome [1]; C3H, ip, 50 mg/kg, 5 days) was −0.066%, the “Clostridiales change in percent relative abundance” value (gut microbiome [1]; C3H, ip, 50 mg/kg, 5 days) was −0.099% and the “Clostridiales family xi. incertae sedis change in percent relative abundance” value (gut microbiome [1]; C3H, ip, 50 mg/kg, 5 days) was −0.047%. The “Clostridiales family xiii. incertae sedis change in percent relative abundance” value (gut microbiome [1]; C3H, ip, 50 mg/kg, 5 days) was −0.013%, the “Coriobacteriaceae change in percent relative abundance” value (gut microbiome [1]; C3H, ip, 50 mg/kg, 5 days) was 0.014% and the “overall disruption to the gut microbiome” value (gut microbiome [1]) was “considerably less severe”. The “Acholeplasmataceae change in percent relative abundance” value (gut microbiome [1]; ip, 50 mg/kg) was 0.003%, the “Aerococcaceae change in percent relative abundance” value (gut microbiome [1]; ip, 50 mg/kg) was 0.001% and the “Anaerolineaceae change in percent relative abundance” value (gut microbiome [1]; ip, 50 mg/kg) was 0.000%. The “Anaeroplasmataceae change in percent relative abundance” value (gut microbiome [1]; ip, 50 mg/kg) was −0.007%, the “Anaplasmataceae change in percent relative abundance” value (gut microbiome [1]; ip, 50 mg/kg) was 0.000% and the “Aspergillaceae change in percent relative abundance” value (gut microbiome [1]; ip, 50 mg/kg) was 0.000%. For the same molecule, the “Asteraceae change in percent relative abundance” value (gut microbiome [1]; ip, 50 mg/kg) was 0.001%, the “Bacillaceae change in percent relative abundance” value (gut microbiome [1]; ip, 50 mg/kg) was −0.021% and the “Bacillales change in percent relative abundance” value (gut microbiome [1]; ip, 50 mg/kg) was −0.108%. The “Bacteroidaceae change in percent relative abundance” value (gut microbiome [1]; ip, 50 mg/kg) was −14.397%, the “Bifidobacteriaceae change in percent relative abundance” value (gut microbiome [1]; ip, 50 mg/kg) was 0.000% and the “Candidatus saccharibacteria change in percent relative abundance” value (gut microbiome [1]; ip, 50 mg/kg) was −0.022%. The “Corynebacteriaceae change in percent relative abundance” value (gut microbiome [1]; ip, 50 mg/kg) was 0.000%, the “Cytophagaceae change in percent relative abundance” value (gut microbiome [1]; ip, 50 mg/kg) was 0.000% and the “Deferribacteraceae change in percent relative abundance” value (gut microbiome [1]; ip, 50 mg/kg) was 0.368%. The “Defluviitaleaceae change in percent relative abundance” value (gut microbiome [1]; ip, 50 mg/kg) was −0.001%, the “Desulfobacteraceae change in percent relative abundance” value (gut microbiome [1]; ip, 50 mg/kg) was 0.000% and the “Enterobacteriaceae change in percent relative abundance” value (gut microbiome [1]; ip, 50 mg/kg) was 1.250%. For the same molecule, the “Enterococcaceae change in percent relative abundance” value (gut microbiome [1]; ip, 50 mg/kg) was 0.036%, the “Erysipelotrichaceae change in percent relative abundance” value (gut microbiome [1]; ip, 50 mg/kg) was 5.307% and the “Eubacteriaceae change in percent relative abundance” value (gut microbiome [1]; ip, 50 mg/kg) was 0.037%. The “Fabaceae change in percent relative abundance” value (gut microbiome [1]; ip, 50 mg/kg) was 0.000%, the “Flavobacteriaceae change in percent relative abundance” value (gut microbiome [1]; ip, 50 mg/kg) was 0.000% and the “Fusobacteriaceae change in percent relative abundance” value (gut microbiome [1]; ip, 50 mg/kg) was 0.000%. The “Gammaproteobacteria change in percent relative abundance” value (gut microbiome [1]; ip, 50 mg/kg) was −0.020%, the “Gloeobacteraceae change in percent relative abundance” value (gut microbiome [1]; ip, 50 mg/kg) was −0.020% and the “Gracilibacteraceae change in percent relative abundance” value (gut microbiome [1]; ip, 50 mg/kg) was −0.112%. For the same molecule, the “Halomonadaceae change in percent relative abundance” value (gut microbiome [1]; ip, 50 mg/kg) was 0.000%, the “Hylidae change in percent relative abundance” value (gut microbiome [1]; ip, 50 mg/kg) was 0.000% and the “Kopriimonadaceae change in percent relative abundance” value (gut microbiome [1]; ip, 50 mg/kg) was 0.000%. For the same molecule, the “Lachnospiraceae change in percent relative abundance” value (gut microbiome [1]; ip, 50 mg/kg) was 1.241%, the “Lactobacillaceae change in percent relative abundance” value (gut microbiome [1]; ip, 50 mg/kg) was 9.667% and the “Leuconostocaceae change in percent relative abundance” value (gut microbiome [1]; ip, 50 mg/kg) was −0.001%. The “Methylobacteriaceae change in percent relative abundance” value (gut microbiome [1]; ip, 50 mg/kg) was 0.000%, the “Microbacteriaceae change in percent relative abundance” value (gut microbiome [1]; ip, 50 mg/kg) was 0.000% and the “Mucoraceae change in percent relative abundance” value (gut microbiome [1]; ip, 50 mg/kg) was 0.000%. The “Nostocaceae change in percent relative abundance” value (gut microbiome [1]; ip, 50 mg/kg) was 0.000%, the “Onagraceae change in percent relative abundance” value (gut microbiome [1]; ip, 50 mg/kg) was 0.000% and the “Oscillatoriales change in percent relative abundance” value (gut microbiome [1]; ip, 50 mg/kg) was 0.000%. The “Oscillospiraceae change in percent relative abundance” value (gut microbiome [1]; ip, 50 mg/kg) was −0.009%, the “Paenibacillaceae change in percent relative abundance” value (gut microbiome [1]; ip, 50 mg/kg) was −0.001% and the “Pasteurellaceae change in percent relative abundance” value (gut microbiome [1]; ip, 50 mg/kg) was 0.000%. For the same molecule, the “Pelobacteraceae change in percent relative abundance” value (gut microbiome [1]; ip, 50 mg/kg) was 0.000%, the “Peptococcaceae change in percent relative abundance” value (gut microbiome [1]; ip, 50 mg/kg) was −0.885% and the “Peptoniphilaceae change in percent relative abundance” value (gut microbiome [1]; ip, 50 mg/kg) was 0.000%. For the same molecule, the “Peptostreptococcaceae change in percent relative abundance” value (gut microbiome [1]; ip, 50 mg/kg) was −0.194%, the “Physalacriaceae change in percent relative abundance” value (gut microbiome [1]; ip, 50 mg/kg) was 0.000% and the “Poaceae change in percent relative abundance” value (gut microbiome [1]; ip, 50 mg/kg) was 0.019%. For the same molecule, the “Polyangiaceae change in percent relative abundance” value (gut microbiome [1]; ip, 50 mg/kg) was 0.000%, the “Porphyromonadaceae change in percent relative abundance” value (gut microbiome [1]; ip, 50 mg/kg) was −0.221% and the “Prevotellaceae change in percent relative abundance” value (gut microbiome [1]; ip, 50 mg/kg) was −0.319%. The “Pseudomonadaceae change in percent relative abundance” value (gut microbiome [1]; ip, 50 mg/kg) was 0.000%, the “Rhizobiaceae change in percent relative abundance” value (gut microbiome [1]; ip, 50 mg/kg) was 0.000% and the “Rhodobacteraceae change in percent relative abundance” value (gut microbiome [1]; ip, 50 mg/kg) was 0.000%. The “Rikenellaceae change in percent relative abundance” value (gut microbiome [1]; ip, 50 mg/kg) was −4.710%, the “Ruminococcaceae change in percent relative abundance” value (gut microbiome [1]; ip, 50 mg/kg) was 1.486% and the “Sphingomonadaceae change in percent relative abundance” value (gut microbiome [1]; ip, 50 mg/kg) was 0.000%. The “Spirochaetaceae change in percent relative abundance” value (gut microbiome [1]; ip, 50 mg/kg) was −0.074%, the “Spiroplasmataceae change in percent relative abundance” value (gut microbiome [1]; ip, 50 mg/kg) was −0.107% and the “Staphylococcaceae change in percent relative abundance” value (gut microbiome [1]; ip, 50 mg/kg) was 0.004%. The “Streptococcaceae change in percent relative abundance” value (gut microbiome [1]; ip, 50 mg/kg) was 2.055%, the “Thermoanaerobacteraceae change in percent relative abundance” value (gut microbiome [1]; ip, 50 mg/kg) was −0.018% and the “Veillonellaceae change in percent relative abundance” value (gut microbiome [1]; ip, 50 mg/kg) was 0.000%. The “Verrucomicrobiaceae change in percent relative abundance” value (gut microbiome [1]; ip, 50 mg/kg) was −0.017%, the “Xanthomonadaceae change in percent relative abundance” value (gut microbiome [1]; ip, 50 mg/kg) was 0.000% and the “Acholeplasmataceae change in percent relative abundance” value (gut microbiome [1]; po, 50 mg/kg) was 0.005%. The “Candidatus saccharibacteria change in percent relative abundance” value (gut microbiome [1]; po, 50 mg/kg) was −0.043%, the “Brucellaceae change in percent relative abundance” value (gut microbiome [2]) was 0.000% and the “Francisellaceae change in percent relative abundance” value (gut microbiome [2]) was −0.001%.
